Values quoted from earlier work as cited in patent US20090306094A1 (Bristol-Myers Squibb Company, priority 2006, published 2009).
pIC50: −log10 of the molar value. Where a name gives a salt, the structure may show the parent alone. Read-outs that look alike come from different tables or passages of the source. Values belong to the compound of their own block, whether it stands above or below them.

Experiments:
[1] = test system: imatinib-resistant BCR-ABL mutants
[2] = test system: cells expressing imatinib-resistant BCR-ABL kinases
[3] = test system: imatinib-resistant BCR-ABL mutants; remark: listed apart in the source
[4] = test system: imatinib-resistant BCR-ABL mutants; conditions: number of mutants / number tested
BCR-ABL = biological target: T1, BCR-ABL (Homo sapiens, UniProt P00519)
T1 construct: BCR (N-terminal part of breakpoint cluster region protein, P11274); the other entry of the earlier key: BCR (P11274, Breakpoint cluster region protein)
T1 sequence (P00519 242-493 limits assumed): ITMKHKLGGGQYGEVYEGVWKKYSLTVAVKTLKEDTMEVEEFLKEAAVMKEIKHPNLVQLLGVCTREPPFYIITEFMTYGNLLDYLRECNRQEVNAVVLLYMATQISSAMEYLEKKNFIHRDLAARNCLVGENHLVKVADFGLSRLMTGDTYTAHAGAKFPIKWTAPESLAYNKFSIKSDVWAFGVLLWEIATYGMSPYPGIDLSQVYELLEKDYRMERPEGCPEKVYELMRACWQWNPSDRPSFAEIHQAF

[5] = test system: BCR-ABL expressing leukemic cells
[6] = test system: Crkl phosphorylation in primary CML patient cells; conditions: correlated with dephosphorylation of BCR-ABL
[7] = test system: leukemic versus normal hematopoietic cells

Compound: Cc1ccc(NC(=O)c2ccc(CN3CC[C@H](N(C)C)C3)c(C(F)(F)F)c2)cc1Nc1nccc(-c2cncnc2)n1 [NS-187]
inhibition of imatinib-resistant BCR-ABL mutants [1]: inhibit imatinib-resistant BCR-ABL mutants

Compound: COc1cc(Nc2c(C#N)cnc3cc(OCCCN4CCN(C)CC4)c(OC)cc23)c(Cl)cc1Cl [SKI-606]
antiproliferative activity (CML cell): potent antiproliferative activity

Compound: COCCNCCOc1ccc(-n2cc(-c3cccc(OC)c3)c3c(N)ncnc32)cc1 [CGP76030]
growth and survival of cells [2]: inhibit the growth and survival

Compound: CP(C)(=O)c1ccc(Nc2nc(C3CCCC3)nc3c2ncn3CCc2cccc(O)c2)cc1 [AP23464]
inhibition of imatinib-resistant BCR-ABL mutants [3]: inhibit imatinib-resistant BCR-ABL mutants

Compound: Cc1cn(-c2cc(NC(=O)c3ccc(C)c(Nc4nccc(-c5cccnc5)n4)c3)cc(C(F)(F)F)c2)cn1 [AMN107]
imatinib-resistant BCR-ABL mutants against which significantly active [4]: 32/33

inhibition of BCR-ABL (BCR-ABL): inhibit BCR-ABL
Compound: Cc1cc(Nc2ncc3cc(-c4c(Cl)cccc4Cl)c(=O)n(C)c3n2)ccc1F [PD180970]
apoptosis [5]: induce apoptosis

Compound: Cc1ccc(NC(=O)c2ccc(CN3CCN(C)CC3)cc2)cc1Nc1nccc(-c2cccnc2)n1 [imatinib, imatinib mesylate]
Crkl phosphorylation [6]: inhibited in a dose-dependent manner
estimated 2-year incidence of resistance (CML patients; blastic phase): 80%
estimated 2-year incidence of resistance (CML patients; chronic phase post-interferon-α failure): 10%
selectivity for leukemic versus normal hematopoietic cells [7]: highly selective
